Results: patent US20250213707A1, “COMPOUND FOR INCREASING EFFICACY OF ONCOLYTIC VIRUSES” (ABLEVIA BIOTECH GMBH, priority 2022, published 2025)

Key:
Type in all cases: binding
mAb E10B10 = test: Fine epitope mapping of mAb E10B10 with 1068 circular peptides from SRCR-1 to -3 of mouse CD163; conditions: circular peptides of 7, 10 and 13 amino acids from mouse CD163
Text: The epitope of this antibody was fine mapped using circular peptide arrays, whereby the peptides were derived from mouse CD163.

[1] = system: IgG from human donors (anti-measles virus antibodies); parameters: key: X: The peptides belonging to the Top 10% hits
[2] = system: IgG from human donors (anti-AAV antibodies); test: Screen for anti-AAV antibodies in human sera, 2452 linear 15-amino-acid AAV peptides on microarrays (Table 1); parameters: key to group I: X: the deduplicated aggregate of the respective top 10 peptide hits for each donor was compiled and designated as group I; key to group II: X: the deduplicated aggregate of the respective top 25 peptide hits for each donor was compiled and designated as group II; key to group III: X: the deduplicated aggregate of the respective top 50 peptide hits for each donor was compiled and designated as group III; conditions: human donor IgG binding to linear 15-amino-acid AAV peptides on microarray, fluorescence; for group I: membership in deduplicated aggregate of top 10 peptide hits for each donor; for group II: membership in deduplicated aggregate of top 25 peptide hits for each donor; for group III: membership in deduplicated aggregate of top 50 peptide hits for each donor
Outline: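 Protein G-purified IgG from human donor blood incubated with microarrays of 2452 linear 15-mer peptides from 16 AAVs; binding read by fluorescence. Background-subtracted signals ranked per donor, with top 10, 25, 50 and 250 hits pooled and deduplicated into groups I-IV.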

mAb Mac2-158 = test: Epitope mapping of mAb Mac2-158 with circular peptides of human CD163 SRCR domain 1; conditions: circular peptides aligned to SRCR domain 1 of human CD163
Text: As a result, the following sequences (as well as motifs derived therefrom) are highly suitable epitopes anti-CD163 antibodies and fragments thereof used as SADC biopolymer scaffold: […]

## 368 (VTNAPGEMKKELR) [compound 368]
mAb E10B10
  rank by relative signal strength (top binding peptides of mAb E10B10): 01

## 369 (ASAVTNAPGEMKK) [compound 369]
mAb E10B10
  rank by relative signal strength (top binding peptides of mAb E10B10): 02

## 370 (VTNAPGEMKK) [compound 370]
mAb E10B10
  rank by relative signal strength (top binding peptides of mAb E10B10): 03

## 371 (VTNAPGE) [compound 371]
mAb E10B10
  rank by relative signal strength (top binding peptides of mAb E10B10): 04

## 372 (GSASAVTNAPGEM) [compound 372]
mAb E10B10
  rank by relative signal strength (top binding peptides of mAb E10B10): 05

## 373 (AVTNAPGEMKKEL) [compound 373]
mAb E10B10
  rank by relative signal strength (top binding peptides of mAb E10B10): 06

## 374 (SASAVTNAPGEMK) [compound 374]
mAb E10B10
  rank by relative signal strength (top binding peptides of mAb E10B10): 07

## 375 (SGSASAVTNAPGE) [compound 375]
mAb E10B10
  rank by relative signal strength (top binding peptides of mAb E10B10): 08

## 376 (AVTNAPGEMK) [compound 376]
mAb E10B10
  rank by relative signal strength (top binding peptides of mAb E10B10): 09

## 377 (SAVTNAPGEM) [compound 377]
mAb E10B10
  rank by relative signal strength (top binding peptides of mAb E10B10): 10

## 378 (ASAVTNAPGE) [compound 378]
mAb E10B10
  rank by relative signal strength (top binding peptides of mAb E10B10): 11

## 379 (SAVTNAPGEMKKE) [compound 379]
mAb E10B10
  rank by relative signal strength (top binding peptides of mAb E10B10): 12

## 380 (TNAPGEMKKE) [compound 380]
mAb E10B10
  rank by relative signal strength (top binding peptides of mAb E10B10): 13

## ANNLTSTVQIFADS (REGION 1..14: note = peptide derived from viral capsid protein) [SEQ ID NO: 1895]
[1]
  top 10%: X
[2]
  group I: X
  group II: X
  group III: X

## DEEEIRTTNPVATE (REGION 1..14: note = peptide derived from viral capsid protein) [SEQ ID NO: 1902]
mAb Mac2-158
  peptide number among the top 20 peptide hits of mAb Mac2-158: 18
[1]
  top 10%: X
[2]
  group I: X
  group II: X
  group III: X

## FGKQGAGRDNVDYS [SEQ ID NO: 1915]
[1]
  top 10%: X
[2]
  group I: X
  group II: X
  group III: X

## GKKRPVDQSPQEPD (REGION 1..14: note = peptide derived from viral capsid protein) [SEQ ID NO: 1919]
[1]
  top 10%: X
[2]
  group I: X
  group II: X
  group III: X

## KIFNIQVKEVTTSN (REGION 1..14: note = peptide derived from viral capsid protein) [SEQ ID NO: 1896]
mAb Mac2-158
  peptide number among the top 20 peptide hits of mAb Mac2-158: 20
[1]
  top 10%: X
[2]
  group I: X
  group II: X
  group III: X

## KTAPGKKRPVDQSP (REGION 1..14: note = peptide derived from viral capsid protein) [SEQ ID NO: 1920]
[1]
  top 10%: X
[2]
  group I: X
  group II: X
  group III: X

## LEDNLSEGIREWWD (REGION 1..14: note = peptide derived from viral capsid protein) [SEQ ID NO: 1898]
mAb Mac2-158
  peptide number among the top 20 peptide hits of mAb Mac2-158: 04
[2]
  group I: X
  group II: X
  group III: X

## LIKNTPVPADPPTT (REGION 1..14: note = peptide derived from viral capsid protein) [SEQ ID NO: 1900]
mAb Mac2-158
  peptide number among the top 20 peptide hits of mAb Mac2-158: 12
[2]
  group I: X
  group II: X
  group III: X

## NYNKSVNVDFTVDT (REGION 1..14: note = peptide derived from viral capsid protein) [SEQ ID NO: 1903]
mAb Mac2-158
  peptide number among the top 20 peptide hits of mAb Mac2-158: 19
[1]
  top 10%: X
[2]
  group I: X
  group II: X
  group III: X

## PEIQYTSNYNKSVN (REGION 1..14: note = peptide derived from viral capsid protein) [SEQ ID NO: 1921]
[1]
  top 10%: X
[2]
  group I: X
  group II: X
  group III: X

## PQYGYLTLNNGSQA (REGION 1..14: note = peptide derived from viral capsid protein) [SEQ ID NO: 1901]
mAb Mac2-158
  peptide number among the top 20 peptide hits of mAb Mac2-158: 14
[2]
  group I: X
  group II: X
  group III: X

## QLKAGDNPYLRYNH (REGION 1..14: note = peptide derived from viral capsid protein) [SEQ ID NO: 1913]
mAb Mac2-158
  peptide number among the top 20 peptide hits of mAb Mac2-158: 13
[2]
  group I: X
  group II: X
  group III: X

## SESVPDPQPIGEPP (REGION 1..14: note = peptide derived from viral capsid protein) [SEQ ID NO: 1899]
mAb Mac2-158
  peptide number among the top 20 peptide hits of mAb Mac2-158: 09
[1]
  top 10%: X
[2]
  group I: X
  group II: X
  group III: X

## SFITQYSTGQVSVE (REGION 1..14: note = peptide derived from viral capsid protein) [SEQ ID NO: 1914]
mAb Mac2-158
  peptide number among the top 20 peptide hits of mAb Mac2-158: 17
[2]
  group I: X
  group II: X
  group III: X

## SNSQLIFAGPNPSG [SEQ ID NO: 1908]
mAb Mac2-158
  peptide number among the top 20 peptide hits of mAb Mac2-158: 03
[1]
  top 10%: X
[2]
  group I: X
  group II: X
  group III: X

## STNLQRGNLALGET [SEQ ID NO: 1894]
[1]
  top 10%: X
[2]
  group I: X
  group II: X
  group III: X

## TRPATAPQIGTVNS [SEQ ID NO: 1905]
[1]
  top 10%: X
[2]
  group I: X
  group II: X
  group III: X

## YDQQLKAGDNPYLK (REGION 1..14: note = peptide derived from viral capsid protein) [SEQ ID NO: 1924]
[1]
  top 10%: X
[2]
  group I: X
  group II: X
  group III: X

## YLYYLNRTQGTTSG [SEQ ID NO: 1925]
[1]
  top 10%: X
[2]
  group I: X
  group II: X
  group III: X
